This note sets out measurements from patent US10220033B2, “Substituted benzoxazepine for cancer therapy” (University of Cape Town, priority 2014, dated 2019).

One assay concerns WHCO6 tumours. Put plainly: Xenograft tumour model. In kind it is in vivo. As to conditions: female nude mice, 50 mg/kg i.p. every 2-3 days for 3 weeks (FIG. 28). As for the experimental part: WHCO6 cells were harvested and resuspended in PBS. For tumour inoculation, cancer cells (5×10^6 per mouse) were s.c. implanted into the hind flanks of female nude mice. Once tumours had reached a palpable size, drug treatment was initiated, where tumour-bearing mice were randomized and dosed i.p. with either vehicle (DMSO) or Compound A (50 mg/kg), every 2-3 days for 3 weeks. Tumour volumes were measured twice a week, using calipers, and tumour volume estimated using the following formula: volume=(length×width×width)/2. Mice were sacrificed 3 weeks after the commencement of drug treatment.

Assay [1] has as its system p65/NFκB transcriptional activity in CaSki cells. Put plainly: p65 luciferase reporter assay. Conditions: 10 or 15 μM, 24 hours (FIG. 15). In kind it is cell-based. On the procedure: To assay for AP-1 and p65 luciferase activities, 40 000 CaSki cells were plated in 24-well plates, and transfected with 50 ng of an API luciferase reporter (containing four copies of the AP-1 binding site) or 50 ng of a p65 luciferase reporter (containing five copies of the p65 binding site, Clontech, CA, USA) and 5 ng pRL-TK (encoding Renilla luciferase, Promega), using 0.16 μl TransFectin™ lipid reagent (Bio-Rad, Hercules, Calif., USA). The following day cells were treated with 10 or 15 μM Compound A. Luciferase activity was measured 24 hours after Compound A treatment using the Dual-LuciferaseR Reporter assay system (Promega, Madison, Wis., USA), according to the manufacturers' instructions. Luciferase readings were measured using the Veritas™ microplate luminometer (Promega) and luciferase readings were normalised to Renilla luciferase in the same extract.
A general note: In a reporter assay the amount or activity of a reporter protein is the signal.

The next assay concerns HeLa and KYSE30 cells. Put plainly: Anchorage-independent colony formation. Format: cell-based. Conditions: 10 μM; polyheme-coated plates, 9 days (FIG. 23). On the procedure: The anchorage-independent proliferation of cancer cells was measured in response to Compound A treatment, as cells grown in this manner are more representative of tumour cells in vivo. Cells were grown on polyheme-coated plates and cell proliferation monitored 9 days after treatment, using MTT assays.

Assay [2] relates to PARP cleavage in CaSki cells. The assay is described as follows: PARP cleavage analysis by Western Blot. Conditions: IC50 and twice the IC50 (FIG. 5), varying concentrations 12 hours (FIG. 26). Format: cell-based. On the procedure:
CaSki cells were treated with varying concentrations of Compound A for 12 hours, following which cells and cell floaters were harvested using RIPA buffer (10 mM Tris-Cl, pH 7.4, 150 mM NaCl, 1% sodium deoxycholate, 0.1% SDS, 1% Triton X-100, 1× complete protease inhibitor cocktail (Roche, Mannheim, Germany)) and Western Blot analysis performed, using a rabbit anti-Parp1/2 (H-250) antibody (sc-7150).

Assay [3] has as its system endogenous Kpnα2 nuclear localisation in CaSki cells. The assay is described as follows: Nuclear and cytoplasmic protein extraction, Western Blot. In kind it is cell-based. As to conditions: IC50 concentration, 48 hours (FIGS. 11, 12). As for the experimental part: (§1) Nuclear and cytoplasmic protein fractionation was performed using the NE-PER Nuclear Protein Extraction Kit (ThermoScientific, Rockford, Ill., USA), according to the manufacturer's instructions. […] Western Blot analysis was performed using a goat anti-Karyopherin α2 (C-20) antibody (sc-6917, Santa Cruz Biotechnology), and a rabbit anti-NFYA (H-209) antibody (sc-10779, Santa Cruz Biotechnology). An anti-β-tubulin (H-235) antibody (sc-9104, Santa Cruz Biotechnology) was used to control for cytoplasmic protein loading and a rabbit anti-TATA-box binding protein (TBP) (N-12) and antibody (sc-204, Santa Cruz Biotechnology) to control for nuclear protein loading. Densitometry was performed using Image J.

Assay [4] has as its system NFY nuclear localisation in CaSki cells. The description is as above. Format: cell-based. As to conditions: IC50 concentration, 48 hours (FIGS. 11, 12). On the procedure: as §1
The next assay relates to cancer cell lines. The assay is described as follows: MTT cell viability, summary statements over panels of cancer cell lines. Format: cell-based. Conditions: cervical, oesophageal, ovarian and breast cancer cell lines (Table 11); read-out: IC50. On the procedure: (§2) Cells were plated in 96-well plates and treated with varying concentrations of a test compound for 48 hours, after which MTT dye, 3-(4,5-dimethylthiazol-2-yl)-2,5-diphenyltetrazolium bromide (Sigma), was added, and crystals solubilised 4 hours later using Solubilisation Reagent (10% SLS in 0.01 M HCl). Absorbencies were measured at 595 nm the following day using a BioTek microplate spectrophotometer (Winooski, Vt., USA) and IC50 curves were generated using GraphPad Prism.

For assay [5], the system named is MDA-MB-231 breast cancer cell line. The assay is described as follows: MTT assay for cell viability, IC50 determination. Format: cell-based. Conditions: Homo sapiens, 48 hours, MTT. On the procedure: as §2
Assay [6] relates to OVCAR3 ovarian cancer cell line. The assay is described as follows: MTT assay for cell viability, IC50 determination. In kind it is cell-based. As to conditions: Homo sapiens, OVCAR-3, 48 hours. As for the experimental part:
as §2
On the technique in general: Formazan colour is commonly taken as a measure of viable cells.

Assay [7] has as its system WI38 non-cancer cell line. The assay is described as follows: MTT assay for cell viability, IC50 determination. Format: cell-based. As to conditions: Homo sapiens, WI-38; WI38 non-cancer; 48 hours, MTT. On the procedure: as §2
The test system of assay [8] is A2780 ovarian cancer cell line. The assay is described as follows: MTT assay for cell viability, IC50 determination. As to conditions: Homo sapiens, 48 hours. Format: cell-based. As for the experimental part:
as §2

Assay [9] deals with WHCO1 oesophageal carcinoma cell line. The assay is described as follows: MTT assay for cell viability, IC50 determination. In kind it is cell-based. As to conditions: Homo sapiens, 48 hours. As for the experimental part:
as §2

Assay [10] in a line: MTT assay for cell viability, IC50 determination. In kind it is cell-based. As to conditions: Homo sapiens, MCF-12A; MCF12A; 48 hours, MTT. As for the experimental part:
as §2

Assay [11] concerns KYSE30 oesophageal cancer cell line. Put plainly: MTT assay for cell viability, IC50 determination. In kind it is cell-based. Conditions: Homo sapiens, KYSE-30, 48 hours. As for the experimental part: as §2
The test system of assay [12] is SVWI38 transformed cell line. Put plainly: MTT assay for cell viability, IC50 determination. In kind it is cell-based. Conditions: SVWI38 transformed; 48 hours, MTT. As for the experimental part: as §2
The test system of assay [13] is HeLa cervical cancer cell line. The assay is described as follows: MTT assay for cell viability, IC50 determination. Format: cell-based. As to conditions: HeLa, 48 hours, MTT, read-out: IC50. As for the experimental part:
as §2

The subject of assay [14] is KYSE150 oesophageal cancer cell line. Put plainly: MTT assay for cell viability, IC50 determination. In kind it is cell-based. As to conditions: Homo sapiens, KYSE-150; KYSE150; 48 hours, MTT. As for the experimental part:
as §2

The test system of assay [15] is MCF7 breast cancer cell line. The assay is described as follows: MTT assay for cell viability, IC50 determination. Format: cell-based. Conditions: Homo sapiens, 48 hours, MTT. As for the experimental part:
as §2

For assay [16], the system named is CaSki, HeLa, KYSE30 and WHCO6 cancer cells. The assay is described as follows: Cell proliferation assay (MTT), cancer cells. Format: cell-based. As for the experimental part:
(§3) To assay for cell proliferation after Compound A treatment, 5000 cells/well were plated in 96-well plates and treated with 5, 10 or 15 μM Compound A, after which cell proliferation was monitored every 24 hours for four days, using MTT.
(§4) This effect was sustained for the full 5 day time period, confirming that there was no population of cells that recovered from the treatment.

For assay [17], the system named is DMB and FG0 non-cancer fibroblast cells. The assay is described as follows: Cell proliferation assay (MTT), non-cancer cells. Format: cell-based. On the procedure:
as §3, §4

Entries after “also recorded” stand apart in the source; their conditions may differ. Like-named read-outs stand apart in the source and are kept apart here.

The IC50 is the concentration that gives 50% inhibition. On to `CN(C)CCCn1c(N)c(-c2nc3ccccc3[nH]2)c2nc3ccccc3nc21` [Compound A, 3-(1H-benzimidazol-2-yl)-1-(3-dimethylaminopropyl)pyrrolo[5,4-b]quinoxalin-2-amine], for which the “tumour growth (normalised tumour volume)” value with WHCO6 tumours is “significantly inhibits tumour growth”. Besides, the p65 luciferase activity result in [1] is “decreased in a dose-dependent manner”. Further, the anchorage-independent colony formation entry with HeLa and KYSE30 cells is “unable to form colonies”. In [2], the “PARP cleavage as an indicator of apoptosis” value is listed as “induce cancer cell death via apoptosis; also recorded: increase in the levels of the 89 kDa cleaved PARP”. The “amount of Kpnα2 in the nucleus” value in [3] is “decrease”. Also, the “NFY in the nuclear fraction” value in [4] is on record as “decrease”. Further, the concentration for half-maximal inhibition (IC50) in the assay with cancer cell lines was approximately 10 µM; in assay [5], 7.92 µM; in assay [6], 10.5 µM; in [7] it was 24 µM; in assay [8], 5.79 µM; in [9], 10.6 µM. The concentration for half-maximal inhibition (IC50) came out at 12.7 µM in assay [10]; 8.84 µM in assay [11]; 10.4 µM in assay [12]; 8.77 µM in [13]; 10.2 µM in assay [13] (Homo sapiens, 48 h); 11.7 µM in [14]. This compound came in with an IC50 in [15] of 9.33 µM. In addition, in assay [16] (10 μM (FIG. 22)), the cell death amounted to 100%. In addition, the “cell death in proliferation assay” value in assay [16] (10 and 15 μM, within 24 hour (FIG. 21 A-D)) is given as “complete cell death”. The cell proliferation entry in [17] (10 μM (FIGS. 21 E and F)) was “proliferated relatively normally”. The “time within which cell death occurred” value in [17] (15 μM) lay within 24 to 48 h.
